In US20230339889A1, “DERIVATIVES OF 2-OXO-N-(4-(PYRIMIDIN-4-YLOXY/THIO)PHENYL)-1,2-DIHYDROPYRIDINE-3-CARBOXAMIDE FOR USE AS PROTEIN KINASE INHIBITORS FOR THERAPY” (AUCENTRA THERAPEUTICS PTY LTD, priority 2020, published 2023):

Tests used:
AXL = target: T1, AXL (Homo sapiens, UniProt P30530); assay: Filter-binding radiometric kinase activity assay (KinaseProfiler, Eurofins); assay type: biochemical; details: 1 µM compound; read-out: % Residual enzymatic activity at 1 µM AXL
T1 construct: purchased Eurofins Discovery (Kinase Profiler service)
T1 sequence (P30530 26-894): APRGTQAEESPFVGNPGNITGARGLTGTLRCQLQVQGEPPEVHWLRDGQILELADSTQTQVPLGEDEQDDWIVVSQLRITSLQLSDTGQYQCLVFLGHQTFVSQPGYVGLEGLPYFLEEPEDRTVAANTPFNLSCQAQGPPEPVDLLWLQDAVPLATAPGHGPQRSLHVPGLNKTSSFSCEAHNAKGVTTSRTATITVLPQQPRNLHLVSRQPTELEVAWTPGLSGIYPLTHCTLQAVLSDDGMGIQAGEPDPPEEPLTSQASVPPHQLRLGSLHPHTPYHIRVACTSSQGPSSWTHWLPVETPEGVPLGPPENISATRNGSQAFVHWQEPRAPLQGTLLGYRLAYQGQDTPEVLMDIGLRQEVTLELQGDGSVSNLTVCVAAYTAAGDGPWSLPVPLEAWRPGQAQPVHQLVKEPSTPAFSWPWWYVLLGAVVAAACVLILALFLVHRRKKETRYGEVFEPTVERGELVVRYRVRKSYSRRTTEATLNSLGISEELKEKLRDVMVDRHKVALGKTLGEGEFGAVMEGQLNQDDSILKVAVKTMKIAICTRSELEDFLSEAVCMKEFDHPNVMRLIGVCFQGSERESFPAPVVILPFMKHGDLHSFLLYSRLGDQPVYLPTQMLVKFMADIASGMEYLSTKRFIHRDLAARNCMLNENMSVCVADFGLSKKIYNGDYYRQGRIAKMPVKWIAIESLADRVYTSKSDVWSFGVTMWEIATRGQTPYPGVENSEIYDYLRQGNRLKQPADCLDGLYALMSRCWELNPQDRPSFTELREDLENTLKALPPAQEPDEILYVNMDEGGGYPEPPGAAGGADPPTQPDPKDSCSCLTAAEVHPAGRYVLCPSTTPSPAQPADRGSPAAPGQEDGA
Protocol: (§1) Filter-binding radiometric kinase activity assay (Kinase Profiler™) from Eurofins Discovery was used to determine the % of inhibition and/or IC50 values. […] The reaction is initiated by the addition of the Mg/ATP mixture. After incubation for 40 minutes at room temperature, the reaction is stopped by the addition of phosphoric acid to a concentration of 0.5%. 10 µL of the reaction is then spotted onto a P30 filter mat and washed four times for 4 minutes in 0.425% phosphoric acid and once in methanol prior to drying and scintillation counting. The IC50 values were derived by fitting a sigmoidal dose-response curve to a plot of assay readout over inhibitor concentration. All fits were computed with the GraphPad Prism Software (San Diego, CA, United States of America). Ki values were derived from IC5o values using Cheng Prusoff equation (Cheng Y et al., Biochem Pharmacol 22(23):3099-3108, 1973).

MET = target: T2, MET (Homo sapiens, UniProt P08581); assay: as above; assay type: biochemical; details: 1 µM compound; read-out: % Residual enzymatic activity at 1 µM MET
T2 construct: purchased Eurofins Discovery (Kinase Profiler service)
T2 sequence (P08581 25-1390): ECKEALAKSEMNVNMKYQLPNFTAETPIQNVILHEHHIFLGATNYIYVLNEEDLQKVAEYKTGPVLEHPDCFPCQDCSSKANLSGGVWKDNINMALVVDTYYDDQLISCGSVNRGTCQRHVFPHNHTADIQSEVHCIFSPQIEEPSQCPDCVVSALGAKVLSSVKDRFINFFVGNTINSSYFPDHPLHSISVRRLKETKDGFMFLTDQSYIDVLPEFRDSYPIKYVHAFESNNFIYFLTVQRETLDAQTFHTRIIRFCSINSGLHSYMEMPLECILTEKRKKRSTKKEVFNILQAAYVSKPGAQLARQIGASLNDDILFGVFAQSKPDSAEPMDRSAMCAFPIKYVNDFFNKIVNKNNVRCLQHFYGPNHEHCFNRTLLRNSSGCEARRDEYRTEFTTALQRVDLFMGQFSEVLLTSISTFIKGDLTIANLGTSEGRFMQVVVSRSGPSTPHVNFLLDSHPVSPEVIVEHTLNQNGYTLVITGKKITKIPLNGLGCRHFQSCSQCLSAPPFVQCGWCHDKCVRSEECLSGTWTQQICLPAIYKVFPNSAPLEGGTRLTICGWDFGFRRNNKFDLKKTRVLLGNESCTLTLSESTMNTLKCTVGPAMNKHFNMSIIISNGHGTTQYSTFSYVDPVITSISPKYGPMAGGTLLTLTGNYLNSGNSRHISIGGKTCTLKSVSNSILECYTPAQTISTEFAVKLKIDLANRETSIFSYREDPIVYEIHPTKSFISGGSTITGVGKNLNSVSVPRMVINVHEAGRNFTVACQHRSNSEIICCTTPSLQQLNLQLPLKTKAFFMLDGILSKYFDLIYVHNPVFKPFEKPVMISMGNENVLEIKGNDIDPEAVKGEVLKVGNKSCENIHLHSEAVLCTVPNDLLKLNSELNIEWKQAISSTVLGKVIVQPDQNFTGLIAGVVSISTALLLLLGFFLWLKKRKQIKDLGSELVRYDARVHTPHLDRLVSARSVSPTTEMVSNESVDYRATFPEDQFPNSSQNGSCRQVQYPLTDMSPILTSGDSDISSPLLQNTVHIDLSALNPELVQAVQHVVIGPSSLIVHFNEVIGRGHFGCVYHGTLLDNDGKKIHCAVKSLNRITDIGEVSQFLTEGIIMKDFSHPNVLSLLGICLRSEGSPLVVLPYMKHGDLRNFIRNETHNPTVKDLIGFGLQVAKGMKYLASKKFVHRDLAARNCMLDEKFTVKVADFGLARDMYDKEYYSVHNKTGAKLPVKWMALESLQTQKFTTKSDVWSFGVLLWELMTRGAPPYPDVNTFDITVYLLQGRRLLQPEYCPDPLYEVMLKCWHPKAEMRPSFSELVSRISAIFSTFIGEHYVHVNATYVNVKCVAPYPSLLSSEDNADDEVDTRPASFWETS
Protocol: as §1

Mer = target: T3, Mer (Homo sapiens, UniProt Q12866); assay: as above; assay type: biochemical; details: 1 µM compound; read-out: % Residual enzymatic activity at 1 µM Mer
T3 construct: purchased Eurofins Discovery (Kinase Profiler service)
T3 sequence (Q12866 21-999): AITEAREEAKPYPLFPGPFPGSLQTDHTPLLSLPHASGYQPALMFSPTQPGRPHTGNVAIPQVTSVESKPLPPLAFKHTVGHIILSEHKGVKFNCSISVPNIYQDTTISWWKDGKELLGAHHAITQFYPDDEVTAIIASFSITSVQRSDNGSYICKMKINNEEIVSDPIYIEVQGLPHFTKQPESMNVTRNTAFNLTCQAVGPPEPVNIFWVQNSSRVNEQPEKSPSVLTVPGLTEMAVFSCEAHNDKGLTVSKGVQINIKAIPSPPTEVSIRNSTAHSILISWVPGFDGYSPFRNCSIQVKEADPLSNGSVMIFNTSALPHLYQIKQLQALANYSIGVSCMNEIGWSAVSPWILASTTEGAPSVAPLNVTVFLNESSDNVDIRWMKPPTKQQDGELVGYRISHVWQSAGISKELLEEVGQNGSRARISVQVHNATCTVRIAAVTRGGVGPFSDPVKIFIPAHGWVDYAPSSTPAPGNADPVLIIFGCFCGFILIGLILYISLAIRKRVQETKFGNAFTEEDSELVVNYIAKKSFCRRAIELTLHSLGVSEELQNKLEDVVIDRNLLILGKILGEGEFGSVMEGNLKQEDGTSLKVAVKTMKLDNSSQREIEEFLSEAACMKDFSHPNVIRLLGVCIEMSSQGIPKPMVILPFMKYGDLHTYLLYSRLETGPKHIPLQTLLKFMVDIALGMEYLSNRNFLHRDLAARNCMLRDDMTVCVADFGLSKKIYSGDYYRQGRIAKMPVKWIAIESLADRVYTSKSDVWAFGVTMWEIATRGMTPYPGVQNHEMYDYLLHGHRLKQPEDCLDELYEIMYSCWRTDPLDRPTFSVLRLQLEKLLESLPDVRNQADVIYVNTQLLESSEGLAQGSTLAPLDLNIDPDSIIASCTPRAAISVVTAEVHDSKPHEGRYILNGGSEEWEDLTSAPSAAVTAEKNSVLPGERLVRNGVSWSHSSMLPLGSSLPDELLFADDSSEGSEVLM
Protocol: as §1

TYRO3 = target: T4, TYRO3 (Homo sapiens, UniProt Q06418); assay: as above; assay type: biochemical; details: 1 µM compound; read-out: % Residual enzymatic activity at 1 µM TYRO3
T4 construct: purchased Eurofins Discovery (Kinase Profiler service)
T4 sequence (Q06418 41-890): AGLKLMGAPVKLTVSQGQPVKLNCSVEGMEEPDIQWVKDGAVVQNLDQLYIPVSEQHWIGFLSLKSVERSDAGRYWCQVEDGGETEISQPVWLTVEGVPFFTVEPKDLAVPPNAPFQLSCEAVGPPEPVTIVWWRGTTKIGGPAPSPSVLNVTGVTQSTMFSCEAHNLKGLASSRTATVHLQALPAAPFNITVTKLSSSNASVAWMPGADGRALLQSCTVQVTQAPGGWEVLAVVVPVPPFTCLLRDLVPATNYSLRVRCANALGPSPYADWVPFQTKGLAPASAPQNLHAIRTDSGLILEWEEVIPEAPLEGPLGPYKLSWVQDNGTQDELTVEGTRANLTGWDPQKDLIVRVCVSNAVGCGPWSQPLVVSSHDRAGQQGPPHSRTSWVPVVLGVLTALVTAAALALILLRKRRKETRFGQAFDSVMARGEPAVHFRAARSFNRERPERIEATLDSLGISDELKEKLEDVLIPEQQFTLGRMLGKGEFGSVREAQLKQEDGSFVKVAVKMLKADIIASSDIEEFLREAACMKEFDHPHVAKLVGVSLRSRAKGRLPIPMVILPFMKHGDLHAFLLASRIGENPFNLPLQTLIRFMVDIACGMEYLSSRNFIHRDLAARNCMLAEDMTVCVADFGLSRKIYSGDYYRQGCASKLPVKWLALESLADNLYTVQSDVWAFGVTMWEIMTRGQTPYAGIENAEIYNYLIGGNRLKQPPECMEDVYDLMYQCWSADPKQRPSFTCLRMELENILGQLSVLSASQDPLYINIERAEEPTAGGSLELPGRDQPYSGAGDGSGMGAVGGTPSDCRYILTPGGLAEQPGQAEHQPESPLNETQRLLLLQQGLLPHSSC
Protocol: as §1

FLT3-ITD = assay: ADP Glo Kinase assay; assay type: biochemical; details: 1 µM compound
Protocol: (§2) Inhibition of CDKs and FLT3 were determined using ADP Glo Kinase assays, as previously described in International Patent Publication No WO 2017/020065.

MV4-11 = assay: Proliferation assay (MTT, leukaemia cancer cell line); assay type: cell-based; details: Homo sapiens; 1 µM compound, MV4-11 cells
Source text: Compounds from Example 1 were subjected to standard resazurin and MTT assays on solid tumour and leukaemia cancer cell lines, respectively, as previously reported (Wang S et al., J Med Chem 47:1662-1675, 2004 and Diab S et al., CheMedChem 9:962-972, 2014).

CDK2E = CDK2E (Homo sapiens, UniProt P24941); assay: ADP Glo Kinase assay; assay type: biochemical; details: 1 µM compound; read-out: % Residual enzymatic activity at 1 µM CDK2E
Protocol: as §2

## Nc1ncnc(Oc2ccc(NC(=O)c3cccn(-c4ccc(C(F)(F)F)cc4)c3=O)cc2F)c1F [Cmpd 9, N-(4-((6-amino-5-fluoropyrimidin-4-yl)oxy)-3-fluorophenyl)-2-oxo-1-(4-(trifluoromethyl)phenyl)-1,2-dihydropyridine-3-carboxamide]
AXL
  remaining activity at 1 µM: 105%
MET
  remaining activity at 1 µM: 64%
Mer
  remaining activity at 1 µM: 85%
TYRO3
  remaining activity at 1 µM: 106%
FLT3-ITD
  % Residual enzymatic activity at 1 µM FLT3-ITD: 88%

## Nc1ncnc(Oc2cc(F)c(NC(=O)c3cccn(-c4ccc(F)cc4)c3=O)cc2F)c1Cl [Cmpd 21, N-(4-((6-amino-5-chloropyrimidin-4-yl)oxy)-2,5-difluorophenyl)-1-(4-fluorophenyl)-2-oxo-1,2-dihydropyridine-3-carboxamide]
AXL
  remaining activity at 1 µM: 3%
MET
  remaining activity at 1 µM: 5%
Mer
  remaining activity at 1 µM: 30%
TYRO3
  remaining activity at 1 µM: 3%
FLT3-ITD
  % Residual enzymatic activity at 1 µM FLT3-ITD: 22%
MV4-11
  activity at 1 µM: 3%

## Nc1ncnc(Oc2ccc(NC(=O)c3cccn(-c4ccc(F)cc4)c3=O)c(F)c2F)c1Cl [Cmpd 13, N-(4-((6-amino-5-chloropyrimidin-4-yl)oxy)-2,3-difluorophenyl)-1-(4-fluorophenyl)-2-oxo-1,2-dihydropyridine-3-carboxamide]
AXL
  remaining activity at 1 µM: 67%
MET
  remaining activity at 1 µM: 94%
Mer
  remaining activity at 1 µM: 91%
TYRO3
  remaining activity at 1 µM: 87%
FLT3-ITD
  % Residual enzymatic activity at 1 µM FLT3-ITD: 74%
MV4-11
  activity at 1 µM: 7%

## Nc1ncnc(Oc2ccc(NC(=O)c3cccn(-c4ccc(F)cc4)c3=O)c(Cl)c2)c1Cl [Cmpd 37, N-(4-((6-amino-5-chloropyrimidin-4-yl)oxy)-2-chlorophenyl)-1-(4-fluorophenyl)-2-oxo-1,2-dihydropyridine-3-carboxamide]
AXL
  remaining activity at 1 µM: 78%
MET
  remaining activity at 1 µM: 88%
Mer
  remaining activity at 1 µM: 87%
TYRO3
  remaining activity at 1 µM: 39%
CDK2E
  remaining activity at 1 µM: 96%
MV4-11
  activity at 1 µM: 48%

## Nc1ncnc(Oc2ccc(NC(=O)c3cccn(-c4ccc(OC(F)(F)F)cc4)c3=O)cc2F)c1F [Cmpd 8, N-(4-((6-amino-5-fluoropyrimidin-4-yl)oxy)-3-fluorophenyl)-2-oxo-1-(4-(trifluoromethoxy)phenyl)-1,2-dihydropyridine-3-carboxamide]
AXL
  remaining activity at 1 µM: 112%
MET
  remaining activity at 1 µM: 85%
Mer
  remaining activity at 1 µM: 100%
TYRO3
  remaining activity at 1 µM: 111%
FLT3-ITD
  % Residual enzymatic activity at 1 µM FLT3-ITD: 91%

## Nc1ncnc(Sc2ccc(NC(=O)c3cccn(-c4ccc(F)cc4)c3=O)cc2F)c1Cl [Cmpd 17, N-(4-((6-amino-5-chloropyrimidin-4-yl)thio)-3-fluorophenyl)-1-(4-fluorophenyl)-2-oxo-1,2-dihydropyridine-3-carboxamide]
AXL
  remaining activity at 1 µM: 55%
MET
  remaining activity at 1 µM: 65%
Mer
  remaining activity at 1 µM: 81%
TYRO3
  remaining activity at 1 µM: 52%
CDK2E
  remaining activity at 1 µM: 101%
MV4-11
  activity at 1 µM: 4%

## Cc1ccc(-n2cccc(C(=O)Nc3ccc(Oc4ncnc(N)c4F)c(F)c3)c2=O)cc1 [Cmpd 35, N-(4-((6-amino-5-fluoropyrimidin-4-yl)oxy)-3-fluorophenyl)-2-oxo-1-(p-tolyl)-1,2-dihydropyridine-3-carboxamide]
AXL
  remaining activity at 1 µM: 70%
MET
  remaining activity at 1 µM: 60%
Mer
  remaining activity at 1 µM: 99%
TYRO3
  remaining activity at 1 µM: 14%
CDK2E
  remaining activity at 1 µM: 97%
MV4-11
  activity at 1 µM: 6%

## Nc1ncnc(Oc2ccc(NC(=O)c3cccn(-c4ccc(F)cc4)c3=O)cc2Cl)c1F [Cmpd 22, N-(4-((6-amino-5-fluoropyrimidin-4-yl)oxy)-3-chlorophenyl)-1-(4-fluorophenyl)-2-oxo-1,2-dihydropyridine-3-carboxamide]
AXL
  remaining activity at 1 µM: 57%
MET
  remaining activity at 1 µM: 93%
Mer
  remaining activity at 1 µM: 89%
TYRO3
  remaining activity at 1 µM: 63%
FLT3-ITD
  % Residual enzymatic activity at 1 µM FLT3-ITD: 43%
MV4-11
  activity at 1 µM: 3%

## Nc1ncnc(Oc2ccc(NC(=O)c3cccn(-c4ccc(Cl)cc4)c3=O)cc2F)c1F [Cmpd 34, N-(4-((6-amino-5-fluoropyrimidin-4-yl)oxy)-3-fluorophenyl)-1-(4-chlorophenyl)-2-oxo-1,2-dihydropyridine-3-carboxamide]
AXL
  remaining activity at 1 µM: 50%
MET
  remaining activity at 1 µM: 91%
Mer
  remaining activity at 1 µM: 103%
TYRO3
  remaining activity at 1 µM: 69%
CDK2E
  remaining activity at 1 µM: 97%
MV4-11
  activity at 1 µM: 3%
